Measurements as given in patent US20240016775A1, “ANTI-CORONAVIRUS APPLICATION OF POLY ADP RIBOSE POLYMERASE INHIBITOR” (FUKANG (SHANGHAI) HEALTH TECHNOLOGY CO., LTD, priority 2020, published 2024).
Counter-ions that a name gives are not always drawn. Like-named read-outs stand apart in the source and are kept apart here.

Assays:
[1] = Cytotoxicity test on Vero-E6 cells (CCK-8); type: cell-based; settings: African green monkey, 48 h, read-out: CC50 (50% cytotoxic concentration)
Protocol: (§1) 2.1 Experimental Groups: • 1) Mefuparib hydrochloride (CVL218) group • 2) DMSO control group • 3) Olaparib group • 4) Cell control group: containing only cells, without adding drugs • 5) Blank control group (only medium without cells)
(§2) Mefuparib hydrochloride was obtained from Pukang (Shanghai) Health Technology Co., Ltd., with a purity of >99.0%. It was dissolved in DMSO and then diluted in gradients according to Table 4 below (the maintenance solution was DMEM medium). Serial dilutions were performed for DMSO according to the same dilution gradients.
(§3) Vero-E6 cells were seeded into 96-well culture plates at 1×10^4 cells/well, and cultured in DMEM containing 10% fetal bovine serum for 16 hours to become 80% pellets, then the cell culture medium was aspirated and discarded from each well, the cells were washed once with sterile PBS, and different drugs (200 μl/well) diluted in the cell maintenance solution were added to each well according to the experimental groups, with 3 duplicate wells set up for each group, and then the wells were placed in a 37° C., 5% CO2 incubator for 48 h.
(§4) For the DMSO control group, DMSO diluted with the cell maintenance solution to the corresponding concentration was added, and for the cell control group, 200 μl of the cell maintenance solution was added. For the blank control group, only cell maintenance solution without cells was added.
(§5) 2.3.2 Detection of toxicity of mefuparib hydrochloride and Olaparib on Vero-E6 The cell state was observed and recorded under an inverted microscope, and the toxicity of the drug to Vero-E6 cells was detected according to the operation instructions of the CCK-8 kit: 20 μl of CCK-8 solution was added to all experimental wells and control wells, and the cell culture plate was placed in a 37° C., 5% CO2 incubator for 1 hour, and then its absorbance value at the wavelength of 450 nm was measured using a multifunctional microplate reader.

SARS-CoV-2 = test: microbe, parasite or virus in culture; type: cell-based; settings: Vero-E6, MOI 0.05, 48 h
Vero-E6 cells = test: Cytotoxicity test on Vero-E6 cells (CCK-8); type: cell-based; settings: 30 μM
Protocol: as §1, §2, §3, §4, §5

[2] = cited from earlier work
[3] = rats, oral 54 mg/kg, cited from earlier work
[4] = some healthy subjects, 3 hours after taking the drug; cited from earlier work
[5] = rats, Male, cited from earlier work

SMILES: O=C(c1cc(Cc2n[nH]c(=O)c3ccccc23)ccc1F)N1CCN(C(=O)C2CC2)CC1 [Olaparib, olaparib, reference compound]
- CC50 at 48 h [1]: 100 to 300 µM
- inhibition at 3.2 µM (SARS-CoV-2; Severe acute respiratory syndrome coronavirus 2, Vero C1008, 48 h, 3.2 μM, different batches, read-out: Inhibiting rate, %): ~12%

SMILES: CNCc1ccc(-c2cc3cc(F)cc(C(N)=O)c3o2)cc1 [mefuparib hydrochloride]
- Inhibitory effect on the cells (toxicity) (Vero-E6 cells): no inhibitory effect on the cells
- CC50 at 48 h [1]: ~92 µM

SMILES: CCOC(=O)c1c(CSc2ccccc2)n(C)c2cc(Br)c(O)c(CN(C)C)c12 [Arbidol, arbidol]
- Inhibiting rate, % (SARS-CoV-2; 3 μM): 21.73%
- inhibition at 3 µM (SARS-CoV-2; Severe acute respiratory syndrome coronavirus 2, Vero C1008, 48 h, read-out: Inhibiting rate, %, 3 μM): 21%
- inhibition at 30 µM (SARS-CoV-2; Severe acute respiratory syndrome coronavirus 2, Vero C1008, 48 h, read-out: Inhibiting rate, %, 30 μM): 98.9%
- Adverse events, share of subjects ([2]; nausea, diarrhea, dizziness, increased serum transaminases): about 6.2%
- Peak concentration ([2]; single oral dose 200 mg): 614.1 ± 342.5 ng/mL
- Peak concentration ([2]; single oral dose 400 mg): 904.2 ± 355.6 ng/mL
- Peak concentration ([2]; single oral dose 600 mg): 975.1 ± 661.0 ng/mL
- Tissue concentration, Brain ([3]; 5 min): 101 ± 67
- Tissue concentration, Heart ([3]; 5 min): 72 ± 47
- Tissue concentration, Kidney ([3]; 5 min): 79 ± 54
- Tissue concentration, Liver ([3]; 5 min): 104 ± 82
- Tissue concentration, Spleen ([3]; 5 min): 48 ± 35
- Tissue concentration, Stomach ([3]; 5 min): 8210 ± 5410
- Tissue concentration, Brain ([3]; 15 min): 50 ± 10
- Tissue concentration, Heart ([3]; 15 min): 132 ± 69
- Tissue concentration, Kidney ([3]; 15 min): 259 ± 190
- Tissue concentration, Liver ([3]; 15 min): 963 ± 290
- Tissue concentration, Spleen ([3]; 15 min): 519 ± 281
- Tissue concentration, Stomach ([3]; 15 min): 23180 ± 10170
- Tissue concentration, Brain ([3]; 360 min): 31 ± 21
- Tissue concentration, Heart ([3]; 360 min): 41 ± 28
- Tissue concentration, Kidney ([3]; 360 min): 58 ± 21
- Tissue concentration, Liver ([3]; 360 min): 262 ± 175
- Tissue concentration, Spleen ([3]; 360 min): 143 ± 51
- Tissue concentration, Stomach ([3]; 360 min): 52750 ± 3059
- Heart rate decrease [4]: 2-24 beats/minute
- AUC0-t ([5]; oral 18 mg/kg): 1956 ± 895 ngh/mL
- AUC0-∞ ([5]; oral 18 mg/kg): 2224 ± 1058 ngh/mL
- Cmax ([5]; oral 18 mg/kg): 1002 ± 298 ng/mL
- Tmax ([5]; oral 18 mg/kg): 0.28 h
- t1/2 ([5]; oral 18 mg/kg): 3.6 ± 1.2 h
- AUC0-t ([5]; oral 54 mg/kg): 6790 ± 2749 ngh/mL
- AUC0-∞ ([5]; oral 54 mg/kg): 7558 ± 2877 ngh/mL
- Cmax ([5]; oral 54 mg/kg): 4711 ± 2361 ng/mL
- Tmax ([5]; oral 54 mg/kg): 0.18 h
- t1/2 ([5]; oral 54 mg/kg): 3.3 ± 0.7 h
